How the values were obtained:
CTLL-2 cells = test: CTLL-2 cell proliferation reactivation assay (CyQUANT); type: cell-based; conditions: for IC50: CTLL-2 cells with rhPD-L1 chimera, 72 h, n = 3
Text: Next, we investigated the capacity of the compound to reactivate proliferation of CTLL-2 cells. These cytotoxic T cells expressing […] are maintained in a dormant state when they are cultivated in the presence of recombinant hPD-L1; their proliferation, monitored by flow-cytometry (using the CyQuant cell proliferation test), is reactivated when they are exposed to a PD-L1 inhibitor, thus mimicking a reactivation of the immune system. […] The replacement of the Me substituent of compound 2 with an ethyl group abolished the capacity of the product to promote CTLL-2 cell proliferation. The same result was obtained with a compound bearing a […] chain instead of the ethyl chain (not shown).
The CyQUANT cell proliferation kit (Thermofischer, Waltham, MA, USA) was used to evaluate the growth of the CTLL-2 cell line (ATCC). Cells were prepared by growing them in the presence or absence of rhPD-L1 chimera (R&D) plus the test compound, and then transferring them to microplates for assay according to manufacturer’s instructions (Molecular Probes C35011). A cell-based standard curve was first established, with the amount of fluorescence correlated to the quantity of cells in the wells. Cells were incubated with increasing concentrations of compounds, over a period 72 h. Positive (nivolumab) and negative (no rhPD-L1 Fc chimera) controls were performed to calibrate the assay. IC50 were determined for the restoration of proliferation by global curve fitting with Graphpad. Experiments were repeated three times and IC50 values averaged.

[1] = Aldehyde (4-HNE) reactivity by HRMS; conditions: 180 min, 37 °C, [M–H]-
Text: Edaravone (1) is a reactive molecule known to form adducts with different aromatic aldehydes, such as formylpterin and vanillin [15, 19]. In aqueous solution, it forms mono- and bis-adducts with the aldehyde compound vanillin [20]. […] Here we have compared the reactivity of compounds 1–5 using another aldehyde with a major biological relevance, 4-hydroxynonenal. 4-HNE is a product of lipid peroxidation implicated in the pathogenesis of diverse human diseases, such as diabetes, aging-related diseases and cancers. […] Edaravone is known to react covalently with 4-HNE to form mono-, bis-, and tris-adducts in solution [25]. We used high-resolution mass spectrometry (HRMS) to monitor the formation of the covalent adducts generated with the phenyl-pyrazolones and 4-HNE after 3 h of incubation at physiological temperature in an aqueous buffer. The formation of mono-, bis-, and tris-adducts was detected unambiguously with each compound (Figure 8). A reaction scheme is represented in Figure 9 for compound 5. In each case, the pyrazolone compound (nucleophile) easily reacted with 4-HNE to generate the different species, each characterized by their corresponding mass (m/z), the ring-double-bond value (rdb, valence values of elements in structure), the signal intensity and the correspondence with the theoretical m/z value (Δppm) (Table 3). The different species can be easily identified, with the isotopic pattern characteristic for the presence of chlorine and carbon atoms (chlorine and carbon cluster isotopes). In all cases, the species formed were identified without any ambiguity from their relative abundances. […] These values were in accordance with the theorical abundances, calculated from the exactive software for the isotopic pattern of the ions from m/z = 489.13606 to m/z = 494.13323.
High resolution mass spectrometry (HRMS) and spectra were recorded with an Exactive Plus mass spectrometer (Thermo Fisher Scientific, San Jose, CA, USA) equipped with a heated electrospray ionisation probe (HESI -II). Each mass analyzer was calibrated with Pierce®ESI positive and negative ion calibration solutions each week (Thermo Fisher Scientific). Optimization of voltages, gas values, and temperatures applied for ion transfer and ionization was performed in negative mode. The tuning parameters were optimized separately with reaction mixture obtained from reaction of nucleophile with the aldehyde. This was completed by infusing first individual solutions of each nucleophile or the aldehyde at 10 pmol/µL. Each reaction mixture was performed during 180 min at 37 °C with the compound at 0.5 mM in phosphate buffer 10 mM, pH = 7.4 and then the reaction mixture was diluted 1/400 in MeOH. The solution was injected with a syringe at a flow rate of 10 µL/min. […]

[2] = molecular target: T1, recombinant human PD-L1 protein (rhPD-L1) (Homo sapiens, UniProt Q9NZQ7); set-up: method as in printed; conditions: background statement of the introduction, ref not given; cited from earlier work
T1 construct: purchased R&D Systems 9049-B7-100
T1 sequence (Q9NZQ7 19-239 limits assumed): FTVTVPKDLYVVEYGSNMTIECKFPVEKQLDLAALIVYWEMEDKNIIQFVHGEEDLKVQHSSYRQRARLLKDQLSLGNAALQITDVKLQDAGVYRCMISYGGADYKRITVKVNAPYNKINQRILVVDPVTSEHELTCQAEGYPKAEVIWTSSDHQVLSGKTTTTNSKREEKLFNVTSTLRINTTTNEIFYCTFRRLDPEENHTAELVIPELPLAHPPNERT

[3] = EPR spin-trapping assay with DMPO under Fenton conditions; conditions: for DMPO kr / DMPO kr/ka: DMPO 1 mM; for DMPO kr: methanol, reaction with •OCH3; for DMPO kr/ka: ka (DMPO-•OH) = 4.3 × 10^9 M^−1 s^−1
Experimental: (§1) We used two electron paramagnetic resonance (EPR)-based assays to compare the antioxidant potency of the compounds. The first assay was a free radical scavenging test with 1,1-diphenyl-2-picrylhydrazyl (DPPH) to monitor the decay in the EPR signal intensity in the presence of the diamagnetic hydrazine compound. The intensity of the typical EPR spectrum of DPPH (100 μM) decreases in the presence of increasing concentration of the test compounds (Figure 6). The attenuation of the EPR signal reflects the antioxidant effect, clearly visible with each compound. From the EPR data, the concentration of the compound required to reduce the signal intensity by 50% (EC50) was calculated. […] The second assay relies on the use of the spin-trapping agent DMPO (5,5-dimethyl-1-pyrroline N-oxide) to monitor the formation of an oxygen centered radical generated under Fenton conditions (hydrogen peroxide plus ferrous ions). We used methanol as a solvent, thus leading to a monitoring of the methoxy radical DMPO/^•OCH3 characterized with a typical six-line EPR signal with hyperfine coupling constants aN = 13.9 G and aH = 8.3 G (Figure 7). The decrease in the EPR signal was evaluated with the different compounds to compare their relative antioxidant capacity. […] For each compound, we calculated the reaction constants (kr in Table 2). The antioxidant capacity of compounds 4–5 was reduced compared to edaravone (1). Nevertheless, compound 5 maintains a significant activity, with a kr value reduced by a factor 2.6 compared to the reference product 1. […] The value obtained with EDA is consistent with that given in the literature and thus validates our measurements.
(§2) An X-band Brüker Elexsys E500 spectrometer operating at 9.86 GHz was used to perform CW-EPR experiments. CW-EPR spectra were recorded at room temperature with a microwave power of 5.024–10.02 mW and a modulation amplitude of 1–2 G that considers non-saturation conditions. The free radical scavenging molecule DPPH (1,1-diphenyl-2-picrylhydrazyl) and spin trap agent DMPO (5,5-dimethyl-1-pyrroline N-oxide) were used to monitor the antioxidant activity of the test compounds. The solution mixture (50 μL) was filled into a glass capillary, placed in 4 mm quartz EPR tubes for analysis. The inhibition of DPPH (%) was calculated with the equation: I (%) = ((I0 − I)/I0) × 100 where I0 is the area of the EPR spectrum of DPPH (control sample), and I the area of the DPPH spectrum with antioxidant compound. The rate constant for the reaction of antioxidant compounds with ^•OCH3 is expressed by the equation: 1/Ra = 1/Rf + ((Kr [AH])/(ka [DMPO] Rf)) where Rf, and Ra indicate EPR signal area (double integration of EPR signal) of ^•OCH3, DMPO/^•OCH3, respectively. ka and [DMPO] are constants, and a plot of 1/Ra vs. [AH] (concentration of antioxidant compound) gives a straight line with 1/Rf as an intercept and kr/(ka[DMPO]Rf) as the slope. The rate constant for the reaction of ^•OCH3 with antioxidant compounds (kr) is expressed by the equation: kr = (ka [DMPO] × slope)/− intercept.

[4] = EPR DPPH free radical scavenging assay; conditions: DPPH 100 µM, compound 2 to 90 µM
Experimental: as §1, §2

[5] = molecular target: T2, PD-L1 dimers (His-labeled PD-L1 titrated with unlabeled His-PD-L1) (Homo sapiens, UniProt Q9NZQ7); test: MST dimerization binding assay; conditions: test compound 1 µM, labeled His-PD-L1 10 nM
T2 construct: purchased Biotechne 9049-B7-100
T2 sequence (Q9NZQ7 19-239 limits assumed): as above
Text: These observations led us to prioritize compound 5 as a hit compound owing to its potent capacity to bind to PD-L1, to interrupt PD-1/PD-L1 signaling and to reactivate CTLL-2 cell proliferation. Moreover, we selected this compound for an additional reason: its unique capacity to promote dimerization of rhPD-L1. This later property was evidenced using a specific dimerization binding assay which monitors the formation of PD-L1 dimers from a His-labeled PD-L1 protein by MST. The use of a PD-L1 protein with a polyhistidine (6xHis) tag at the C-terminus allows the non-covalent, stable, and selective labeling of the protein with a red fluorescent dye, to facilitate the formation of PD-L1 dimers. […] There is no doubt that this compound is a robust inhibitor of the PD-1/PD-L1 checkpoint.
A labeled His-PD-L1 protein was titrated against an unlabeled His-PD-L1 protein with or without compounds of interest. The test compound (1 µM) and the His-labeled PD-L1 protein (10 nM) are kept constant whereas the unlabeled His-PD-L1 (1 µM) varies with a serial 1:1 ratio of 16 gradients. MST was performed using the same instrument as mentioned above. His-PD-L1 protein (Biotechne # 9049-B7-100) was diluted to 200 nM in commercial PBS-T buffer and was labeled as indicated above. The RED-tris-NTA dye was diluted in PBS-T to 100 nM. The mix was incubated at room temperature in the dark for 30 min. Capillaries were filled individually.

[6] = molecular target: T1, recombinant human PD-L1 protein (rhPD-L1); test: Microscale thermophoresis (MST) binding assay; conditions: rhPD-L1, n = 3, 1:1 binding model
[7] = molecular target: T3, interaction between PD-L1 and PD-1 (Homo sapiens, UniProt Q9NZQ7); test: FRET reporter assay, SHP-2-CFP / PD-1-YFP in CHO-K1 cells activated by rhPD-L1; type: cell-based; conditions: CHO-K1 cells co-transfected PD1-SHP2, PD-L1 10 µM, n = 5, read-out: Bioactivity (IC50), block of PD-L1/PD-1 interaction in cells
T3 construct: expressed in transfected cells; host or cells: CHO-K1
T3 sequence (Q9NZQ7 19-239 limits assumed): as above

Solubility = type: physicochemical
[8] = Metabolic stability in mouse liver microsomes; type: in vitro ADME
Text: The metabolic stability of the compounds in mice liver microsomes was investigated using liver microsomes from male mice (BD Gentest™) with propranolol as a positive control, as described previously. Mouse plasma CD-1 was used to investigate the plasma stability of the molecules, with enalapril as a positive control, as described recently.

Molecule	HRMS intensity of remaining 4-HNE [1]	EC50 [4] [nM]	melting point [°C]	Promotion of PD-L1 dimerization [5]	Kd [6] [nM]	IC50 [7] [nM]	Solubility compared to compound 3 (Solubility)	Microsomal stability compared to compound 3 [8]	IC50 (CTLL-2 cells) [nM]	Binding to PD-L1 [2]	DMPO kr [3]	DMPO kr/ka [3]	IC50 (CTLL-2 cells; Mus musculus, CTLL-2, 72 h) [nM]	Reactivation of CTLL-2 cell proliferation (CTLL-2 cells; CTLL-2 cells with rhPD-L1)	kr value reduced by a factor compared to reference product 1 ([3]; DMPO assay)
COc1nc(OCc2cccc(-c3ccccc3)c2C)ccc1CNCCNC(C)=O [BMS-202, reference compound]									53 ± 17						
CC1=NN(c2ccccc2)C(=O)C1 [Compound 1, edaravone, reference compound]	1.63 × 10^5	35800								does not bind to PD-L1	25.9 10^10 M^−1 s^−1	60			
CC1=NN(c2ccc(Cl)cc2Cl)C(=O)C1 [Compound 2]		36500									19.3 10^10 M^−1 s^−1	45	53 ± 11		
Oc1cc(-c2ccccc2F)nn1-c1ccc(Cl)cc1Cl [Compound 5, 1-(2,4-Dichlorophenyl)-3-(2-fluorophenyl)-1H-pyrazol-5-ol]	2.11 × 10^5	38200	229	promoted the dimerization of PD-L1 in a dose-dependent manner	27 ± 4	74 ± 7	slightly improved	slightly improved			9.74 10^10 M^−1 s^−1	23	43 ± 9		2.6

Further lines, with some results ahead:

HRMS intensity of remaining 4-HNE [1]	EC50 [4] [nM]	melting point [°C]	Promotion of PD-L1 dimerization [5]	Kd [6] [nM]	IC50 [7] [nM]	Solubility compared to compound 3 (Solubility)	Microsomal stability compared to compound 3 [8]	Molecule	IC50 (CTLL-2 cells) [nM]	Binding to PD-L1 [2]	DMPO kr [3]	DMPO kr/ka [3]	IC50 (CTLL-2 cells; Mus musculus, CTLL-2, 72 h) [nM]	Reactivation of CTLL-2 cell proliferation (CTLL-2 cells; CTLL-2 cells with rhPD-L1)	kr value reduced by a factor compared to reference product 1 ([3]; DMPO assay)
1.92 × 10^5	34000	188	inactive					COc1ccccc1C1=NN(c2ccc(Cl)cc2Cl)C(=O)C1 [Compound 3, 1-(2,4-Dichlorophenyl)-3-(2-methoxyphenyl)-1H-pyrazol-5(4H)-one]	79 ± 7				70		
1.01 × 10^5	40900	160	inactive	19 ± 3	12 ± 5			CCC1=NN(c2ccc(Cl)cc2Cl)C(=O)C1 [Compound 4, 1-(2,4-dichlorophenyl)-3-ethyl-1H-pyrazol-5(4H)-one]			4.40 10^10 M^−1 s^−1	10		inactive	
					47 ± 11			atezolizumab							

Source: PMC10144346, “Novel PD-L1-Targeted Phenyl-Pyrazolone Derivatives with Antioxidant Properties” (Molecules, 2023)
